Key:
miR-221 and miR-222 = test: miRNA isolation and expression analysis of tumor tissues; type: in vivo; settings: tumor tissues from orally treated mice, vs vehicle
Protocol: miRNA from athymic nude mice following treatment with vehicle, milciclib, sorafenib, or milciclib+sorafenib was isolated from Total RNA using the TaqMan Advanced miRNA cDNA Synthesis Kit (Thermo Fisher Scientific, Rockford, Ill.) according to the manufacturer's instructions. miRNA-221 and miR-222 quantifications were performed in duplicates using TaqMan Advanced miRNA Assay (Thermo Fisher Scientific, Rockford, Ill.) with a sample dilution of 1:10. The PCR mixture was incubated at 95° C. for 20 seconds, followed by 40 cycles of 95° C. for 3 seconds and 60° C. for 30 seconds. Results were normalized to hsa-miR-192-5p as reference miRNA and the relative gene expression calculated as 2−ΔCT was expressed as fold increase over control samples.
Tumor tissues from mice treated with vehicle, sorafenib, milciclib, milciclib+sorafenib and normal liver tissues from naïve untreated mice were collected and levels of miR-221 and miR-222 were determined. The levels of both of miR-221 and miR-222 were elevated in tumors from vehicle treated mice.

MHCC97L cells [1] = test: IC50 values by cell proliferation assay (WST-1); type: cell-based; settings: Homo sapiens, individual inhibitor, 72 hours
From the text: See Shailubhai, K et al. “Atiprimod is an inhibitor of cancer cell proliferation and angiogenesis.” J Exp Ther Oncol. 2004; 4: 267-279; and Choudhari et al. “Deactivation of Akt and STAT3 signaling promotes apoptosis, inhibits proliferation, and enhances the sensitivity of hepatocellular carcinoma cells to an anticancer agent, atiprimod” Molecular Cancer Therapeutics. 2007; 6: 112-121. References are incorporated herein in their entireties.
MHCC97H and MHCC97L (highly metastatic hepatocellular carcinoma cell line, derived from humans)
Cells (MHCC97H, MHCC97L, and HepG2.2.15) were cultured for 24 hours in 2% FBS and then were trypsinized, resuspended in 2% FBS and seeded in a rat collagen coated 96-well plate at a density of 10,000 cells/100 μl/well, a day before the experiment and cultured at 37° C. in 5% CO2. The cells were treated the next day with milciclib, sorafenib, regorafenib, sunitinib, and lenvatinib, individually or in combination in DMEM/F12+2% FBS+for 72 hours prior to the addition of WST-1 reagent. About 100 μL media was added to control well. After cells had been cultured for 72 hours with different drug concentrations, cells were washed 3 times with sterile 1× Phosphate buffered saline (PBS). To determine cell proliferation by the colorimetric test, 10 μL of WST-1 reagent (Sigma Aldrich, St Louis, Mo.) was added in 100 μL cell culture media and incubated for 2 hours in 5% CO2 at 37° C. At the end of incubation period, the plate was placed on a plate shaker for 1 minute and was monitored using a spectrophotometer at an optical density of 450 nm with a reference wavelength of 600 nm using Tecan F200 and iControl software. IC50 values were determined using GraphPad Prism (GraphPad Software, La Jolla, Calif.). Each experiment was performed in duplicate and repeated 2 times.

MHCC97L cells [2] = test: Wound healing assay; type: cell-based, human; settings: scratched monolayer of MHCC97L cells, 96 hours, vs vehicle control
Protocol: (§1) Cells were seeded at a density of 500,000 cells/2 mL/well on to a collagen-coated 6-well culture plate and incubated overnight in a humidified CO2 incubator at 37° C. to form a uniform monolayer. The monolayer was then scratched in a straight line with a new 10 μL pipette tip across the center of the well. After scratching, cells were washed with sterile PBS once to remove detached cells. Subsequently, wells were replenished with fresh DMEM/F12 containing 2% FBS and the test article either alone or in combination with milciclib. […] Images were analyzed using SlideBook™ 5 software. The values were expressed as a percentage of migration. See Saxena N K, Sharma D, Ding X, et al. Concomitant activation of the JAK/STAT, PI3K/AKT, and ERK signaling is involved in leptin-mediated promotion of invasion and migration of hepatocellular carcinoma cells. Cancer Res. 2007; 67: 2497-2507.

HepG2.2.15 cells = test: Wound healing assay; type: cell-based, human; settings: scratched monolayer of HepG2.2.15 cells, 96 hours, vs vehicle control
Protocol: as §1

alpha-fetoprotein (AFP) = test: Serum AFP in orthotopic HCC mouse model; type: in vivo, mice; settings: milciclib 30 mg/kg, sorafenib 20 mg/kg, oral, vs vehicle
Protocol: MHCC97H cells were seeded at a density of 500,000 cells/2 mL/well on a 6 well culture plate and incubated overnight at 37° C. in a humidified CO2 incubator. Cells were then treated with 1.3 μM milciclib or vehicle in DMEM/F12+2% FBS for 72 hours. Subsequently, cells were lysed in RIPA buffer, the supernatant was collected and used to perform ELISA assay as per the manufacturer's instructions. In orthotopic HCC mouse model, levels of serum marker alpha-fetoprotein (AFP) were determined on day 0, 6, 12, 18, 24, 30, 36, 42 and 48 using High Range AFP kit as per manufacturer's instructions.
Mouse experiments were performed in accordance with the guidelines approved by the Institutional Animal Care and use committee of Washington Biotechnology Inc (Baltimore, Md.) where the studies were conducted. (FIG. 66) Test agents were dissolved in chremophor/ethanol (1:1) to make a 5× stock solution and diluted in water when used. MHCC97H human liver cells (5×106) in PBS were mixed with 20% Matrigel and then inoculated orthotopically into the right flank of female Balb/c nude mice. Seven days after cell inoculation, the mice were randomly allocated to either the treatment group (n=12) or the control group (n=12) based on the levels of AFP. The daily animal inspection was conducted for general appearance and tumor growth. […]

[3] = phase I, cited from earlier work

CNC(=O)c1nn(C)c2c1C(C)(C)Cc1cnc(Nc3ccc(N4CCN(C)CC4)cc3)nc1-2 [MILCICLIB, N,1,4,4-tetramethyl-8-((4-(4-methylpiperazin-1-yl)phenyl)amino)-4,5-dihydro-1H-pyrazolo[4,3-h]quinazoline-3-carboxamide]
expression of miR-221 and miR-222 (miR-221 and miR-222): significantly reduced
IC50 (MHCC97L cells [1]): 1000 nM
cell migration (MHCC97L cells [2]): reduced cell migration
cell migration (HepG2.2.15 cells): reduced cell migration
serum AFP levels (alpha-fetoprotein (AFP)): Significantly lower
tolerability ([3]; oral treatment, patients with advanced solid malignancies): well-tolerated
RP2D ([3]; oral): 150 mg/day
major toxicity profile ([3]; reversible upon treatment suspension): tremors and gastrointestinal toxicity

— patent US10758541B2, “Formulations of milciclib and therapeutic combinations of the same for use in the treatment of cancer” (Tiziana Life Sciences PLC, priority 2017, dated 2020)
